Source: PMC5218480 (PLoS ONE, 2017)

Tested on: MV-4-11 cells
Assay: Gene expression microarray analysis (Affymetrix PrimeView) and GSEA
Format: cell-based, human
Set-up: RFU PODN (11730768_x_at) / Fold change /veh PODN (11730768_x_at) / RFU LINC00158 (11744669_a_at) / Fold change /veh LINC00158 (11744669_a_at) / RFU DUSP10 (11751237_a_at) / Fold change /veh DUSP10 (11751237_a_at) / RFU ID3 (11757404_x_at) / Fold change /veh ID3 (11757404_x_at) / RFU PLEKHG5 (11737974_s_at) / Fold change /veh PLEKHG5 (11737974_s_at) / RFU LRRC4B (11730491_at) / Fold change /veh LRRC4B (11730491_at) / RFU GIMAP4 (11747438_a_at) / Fold change /veh GIMAP4 (11747438_a_at) / RFU KRT8 (11758183_x_at) / Fold change /veh KRT8 (11758183_x_at) / RFU CNN1 (11734310_a_at) / Fold change /veh CNN1 (11734310_a_at) / RFU VPS37D (11726825_at) / Fold change /veh VPS37D (11726825_at) / RFU C10orf10 (11716522_x_at) / Fold change /veh C10orf10 (11716522_x_at) / RFU KIR2DL2 /// KIR2DL4 /// KIR2DL5A /// KIR2DL5B /// KIR2DS1 /// KIR2DS2 /// KIR2DS3 /// KIR2DS4 /// KIR3DL3 /// KIR3DL3 /// KIR3DS1 (11738374_at) / Fold change /veh KIR2DL2 /// KIR2DL4 /// KIR2DL5A /// KIR2DL5B /// KIR2DS1 /// KIR2DS2 /// KIR2DS3 /// KIR2DS4 /// KIR3DL3 /// KIR3DL3 /// KIR3DS1 (11738374_at) / RFU C1QL1 (11718748_at) / Fold change /veh C1QL1 (11718748_at) / RFU TMPRSS4 (11747572_a_at) / Fold change /veh TMPRSS4 (11747572_a_at) / RFU HAMP (11756126_x_at) / Fold change /veh HAMP (11756126_x_at) / RFU RNFT2 (11725882_a_at) / Fold change /veh RNFT2 (11725882_a_at) / RFU NR4A2 (11747474_a_at) / Fold change /veh NR4A2 (11747474_a_at) / RFU ABCC12 (11746883_a_at) / Fold change /veh ABCC12 (11746883_a_at) / RFU TMEM136 (11760407_x_at) / Fold change /veh TMEM136 (11760407_x_at) / RFU CLDN22 /// WWC2 (11732394_at) / Fold change /veh CLDN22 /// WWC2 (11732394_at) / RFU HLA-DPB1 (11760878_x_at) / Fold change /veh HLA-DPB1 (11760878_x_at) / RFU SPINT1 (11716480_a_at) / Fold change /veh SPINT1 (11716480_a_at) / RFU GAP43 (11754022_s_at) / Fold change /veh GAP43 (11754022_s_at) / RFU A4GNT (11735810_at) / Fold change /veh A4GNT (11735810_at) / RFU PRB3 (11715151_x_at) / Fold change /veh PRB3 (11715151_x_at) / RFU TUBB4B (11761932_at) / Fold change /veh TUBB4B (11761932_at) / RFU CAPN14 (11732068_a_at) / Fold change /veh CAPN14 (11732068_a_at) / RFU TMCC2 (11721928_a_at) / Fold change /veh TMCC2 (11721928_a_at) / RFU IRGQ (11745062_a_at) / Fold change /veh IRGQ (11745062_a_at) / RFU FAM174B (11720279_a_at) / Fold change /veh FAM174B (11720279_a_at) / RFU TMPRSS4 (11748680_a_at) / Fold change /veh TMPRSS4 (11748680_a_at) / RFU FAM212B (11763350_a_at) / Fold change /veh FAM212B (11763350_a_at) / RFU PLEKHG5 (11743358_a_at) / Fold change /veh PLEKHG5 (11743358_a_at) / RFU ZSCAN30 (11745921_a_at) / Fold change /veh ZSCAN30 (11745921_a_at) / RFU CMKLR1 (11741424_a_at) / Fold change /veh CMKLR1 (11741424_a_at) / RFU LOC101060620 /// MAPK8IP1 (11723275_at) / Fold change /veh LOC101060620 /// MAPK8IP1 (11723275_at) / RFU SPTSSB (11747773_x_at) / Fold change /veh SPTSSB (11747773_x_at) / RFU PRSS12 (11739890_at) / Fold change /veh PRSS12 (11739890_at) / RFU BIN1 (11741810_x_at) / Fold change /veh BIN1 (11741810_x_at) / RFU WNT11 (11732464_a_at) / Fold change /veh WNT11 (11732464_a_at) / RFU C10orf10 (11716521_a_at) / Fold change /veh C10orf10 (11716521_a_at) / RFU C5orf56 (11738089_at) / Fold change /veh C5orf56 (11738089_at) / RFU CYB561 (11721691_x_at) / Fold change /veh CYB561 (11721691_x_at) / RFU ANKRD19P (11752326_a_at) / Fold change /veh ANKRD19P (11752326_a_at) / RFU OR2T12 /// OR2T33 /// OR2T8 (11738714_s_at) / Fold change /veh OR2T12 /// OR2T33 /// OR2T8 (11738714_s_at) / RFU VCAN (11748164_a_at) / Fold change /veh VCAN (11748164_a_at) / RFU JSRP1 (11732532_at) / Fold change /veh JSRP1 (11732532_at) / RFU KRTAP10-11 (11738290_x_at) / Fold change /veh KRTAP10-11 (11738290_x_at) / RFU MYO3A (11730013_a_at) / Fold change /veh MYO3A (11730013_a_at) / RFU EBF3 (11725865_a_at) / Fold change /veh EBF3 (11725865_a_at) / RFU CAMK2N1 (11719241_x_at) / Fold change /veh CAMK2N1 (11719241_x_at) / RFU C5orf56 (11738088_a_at) / Fold change /veh C5orf56 (11738088_a_at) / RFU OLFML3 (11715873_a_at) / Fold change /veh OLFML3 (11715873_a_at) / RFU LOC100653217 /// NTM (11731650_a_at) / Fold change /veh LOC100653217 /// NTM (11731650_a_at) / RFU MAPK11 (11762145_a_at) / Fold change /veh MAPK11 (11762145_a_at) / RFU FIZ1 (11724087_x_at) / Fold change /veh FIZ1 (11724087_x_at) / RFU OASL (11726364_x_at) / Fold change /veh OASL (11726364_x_at) / RFU SOX15 (11748057_x_at) / Fold change /veh SOX15 (11748057_x_at) / RFU CD79A (11719716_a_at) / Fold change /veh CD79A (11719716_a_at) / RFU HIST1H1D (11736915_at) / Fold change /veh HIST1H1D (11736915_at) / RFU CASKIN2 (11723855_a_at) / Fold change /veh CASKIN2 (11723855_a_at) / RFU LOC730098 (11760151_x_at) / Fold change /veh LOC730098 (11760151_x_at) / RFU OR4N2 (11742367_at) / Fold change /veh OR4N2 (11742367_at) / RFU PRRT2 (11749266_a_at) / Fold change /veh PRRT2 (11749266_a_at) / RFU SNX32 (11753110_a_at) / Fold change /veh SNX32 (11753110_a_at) / RFU CDHR5 (11726645_a_at) / Fold change /veh CDHR5 (11726645_a_at) / RFU RCAN1 (11760418_a_at) / Fold change /veh RCAN1 (11760418_a_at) / RFU FAM167A (11723789_a_at) / Fold change /veh FAM167A (11723789_a_at) / RFU FAM26E (11764081_at) / Fold change /veh FAM26E (11764081_at) / RFU ISYNA1 (11749810_s_at) / Fold change /veh ISYNA1 (11749810_s_at) / RFU ACY1 (11761880_at) / Fold change /veh ACY1 (11761880_at) / RFU 11764098_at / Fold change /veh 11764098_at / RFU SAMD14 (11745864_x_at) / Fold change /veh SAMD14 (11745864_x_at) / RFU NPB (11741838_a_at) / Fold change /veh NPB (11741838_a_at) / RFU TMPRSS6 (11731388_a_at) / Fold change /veh TMPRSS6 (11731388_a_at) / RFU KRTAP10-2 (11738614_at) / Fold change /veh KRTAP10-2 (11738614_at) / RFU ARHGAP8 /// PRR5-ARHGAP8 (11727945_x_at) / Fold change /veh ARHGAP8 /// PRR5-ARHGAP8 (11727945_x_at) / RFU KRTAP5-7 /// NADSYN1 (11734609_at) / Fold change /veh KRTAP5-7 /// NADSYN1 (11734609_at) / RFU RASL12 (11751679_a_at) / Fold change /veh RASL12 (11751679_a_at) / RFU CDKN2B (11736163_a_at) / Fold change /veh CDKN2B (11736163_a_at) / RFU PRF1 (11729649_at) / Fold change /veh PRF1 (11729649_at) / RFU, ZNF638 /// ZNF638-IT1 / Fold change vs veh, ZNF638 /// ZNF638-IT1 / RFU, PANK3 / Fold change vs veh, PANK3 / RFU, SH3YL1 / Fold change vs veh, SH3YL1 / RFU, ZEB2 / Fold change vs veh, ZEB2 / RFU, NRIP1 / Fold change vs veh, NRIP1 / RFU, PTTG1IP / Fold change vs veh, PTTG1IP / RFU, CAPN2 / Fold change vs veh, CAPN2 / RFU, MED14 / Fold change vs veh, MED14 / RFU, SNORA58 / Fold change vs veh, SNORA58 / RFU, C1orf63 / Fold change vs veh, C1orf63 / RFU, LRRFIP1 / Fold change vs veh, LRRFIP1 / RFU, NDUFAF7 / Fold change vs veh, NDUFAF7 / RFU, SLC12A2 / Fold change vs veh, SLC12A2 / RFU, IBTK / Fold change vs veh, IBTK / RFU, ESF1 / Fold change vs veh, ESF1 / Fold change vs veh, TMEM50B / RFU, TAOK1 / Fold change vs veh, TAOK1 / RFU, ACBD3 / Fold change vs veh, ACBD3 / RFU, TMA16 / Fold change vs veh, TMA16 / RFU, RWDD3 / Fold change vs veh, RWDD3 / RFU, BCAT1 / Fold change vs veh, BCAT1 / RFU, EDEM3 / Fold change vs veh, EDEM3 / RFU, TMEM33 / Fold change vs veh, TMEM33 / RFU, WDR75 / Fold change vs veh, WDR75 / RFU, AHCTF1 / Fold change vs veh, AHCTF1 / RFU, TFRC / Fold change vs veh, TFRC / RFU, ZDHHC17 / Fold change vs veh, ZDHHC17 / RFU, NOM1 / Fold change vs veh, NOM1 / RFU, ARL8B / Fold change vs veh, ARL8B / RFU, ZBTB11 / Fold change vs veh, ZBTB11 / RFU, TAMM41 / Fold change vs veh, TAMM41 / RFU, KIAA1704 /// LOC100996395 / Fold change vs veh, KIAA1704 /// LOC100996395 / RFU, ING1 / Fold change vs veh, ING1 / RFU, TRMT61B / Fold change vs veh, TRMT61B / RFU, FUBP3 / Fold change vs veh, FUBP3 / RFU, TP53 / Fold change vs veh, TP53 / RFU, TNKS2 / Fold change vs veh, TNKS2 / RFU, ZFP14 / Fold change vs veh, ZFP14 / RFU, ACTR2 / Fold change vs veh, ACTR2 / RFU, PPP3R1 / Fold change vs veh, PPP3R1 / RFU, PIK3R1 / Fold change vs veh, PIK3R1 / RFU, HNRNPA1 / Fold change vs veh, HNRNPA1 / RFU, RNF170 / Fold change vs veh, RNF170 / RFU, ZNF28 / Fold change vs veh, ZNF28 / RFU, RNGTT / Fold change vs veh, RNGTT / RFU, OGT / Fold change vs veh, OGT / RFU, BRD1 / Fold change vs veh, BRD1 / RFU, MARS / Fold change vs veh, MARS / RFU, ZNF655 / Fold change vs veh, ZNF655 / RFU, FAHD1 / Fold change vs veh, FAHD1 / RFU, BDP1 / Fold change vs veh, BDP1 / RFU, LRRCC1 / Fold change vs veh, LRRCC1 / RFU, ARID1A / Fold change vs veh, ARID1A / RFU, ZNF146 / Fold change vs veh, ZNF146 / RFU, ZNF330 / Fold change vs veh, ZNF330 / RFU, GPN3 / Fold change vs veh, GPN3 / RFU, C9orf123 / Fold change vs veh, C9orf123 / RFU, N4BP2L2 / Fold change vs veh, N4BP2L2 / RFU, ARFIP1 / Fold change vs veh, ARFIP1 / RFU, FAM179B / Fold change vs veh, FAM179B / RFU, BCL10 / Fold change vs veh, BCL10 / RFU, UHRF1BP1L / Fold change vs veh, UHRF1BP1L / RFU, BET1 / Fold change vs veh, BET1 / RFU, CNOT2 / Fold change vs veh, CNOT2 / RFU, ZNF268 / Fold change vs veh, ZNF268 / Fold change vs veh, ZNF507 / RFU, DGCR2 / Fold change vs veh, DGCR2 / RFU, WDSUB1 / Fold change vs veh, WDSUB1 / Fold change vs veh, HSP90B1 /// MIR3652 / RFU, ADSS / Fold change vs veh, ADSS / RFU, GK / Fold change vs veh, GK / RFU, ZNF148 / Fold change vs veh, ZNF148 / RFU, TAF9 / Fold change vs veh, TAF9 / RFU, SLC1A5 / Fold change vs veh, SLC1A5 / RFU, SLMO2 / Fold change vs veh, SLMO2 / RFU, ABCC4 / Fold change vs veh, ABCC4 / RFU, LOC101060439 /// RAP1B / Fold change vs veh, LOC101060439 /// RAP1B / RFU, RFX7 / Fold change vs veh, RFX7 / RFU, GTPBP10 / Fold change vs veh, GTPBP10 / RFU, CNEP1R1 / Fold change vs veh, CNEP1R1 / RFU, BIVM-ERCC5 /// ERCC5 / Fold change vs veh, BIVM-ERCC5 /// ERCC5 / RFU, ILF3 / Fold change vs veh, ILF3 / RFU 11762660_at / Fold change /veh 11762660_at / RFU VCAN (11757783_s_at) / Fold change /veh VCAN (11757783_s_at) / RFU DDX43 (11728927_at) / Fold change /veh DDX43 (11728927_at) / RFU KRT8 (11758188_x_at) / Fold change /veh KRT8 (11758188_x_at) / RFU NKD1 (11759106_at) / Fold change /veh NKD1 (11759106_at) / RFU SRD5A1 (11742802_a_at) / Fold change /veh SRD5A1 (11742802_a_at) / RFU TPSAB1 /// TPSB2 (11721975_s_at) / Fold change /veh TPSAB1 /// TPSB2 (11721975_s_at) / RFU GSTM3 (11746129_a_at) / Fold change /veh GSTM3 (11746129_a_at) / RFU IL23R (11737362_x_at) / Fold change /veh IL23R (11737362_x_at) / RFU TMEM51 (11727254_a_at) / Fold change /veh TMEM51 (11727254_a_at) / RFU PIWIL2 (11732686_x_at) / Fold change /veh PIWIL2 (11732686_x_at) / RFU ORM1 (11744905_x_at) / Fold change /veh ORM1 (11744905_x_at) / RFU CCDC152 (11743942_at) / Fold change /veh CCDC152 (11743942_at) / RFU ECM1 (11717891_a_at) / Fold change /veh ECM1 (11717891_a_at) / RFU IL23R (11748794_a_at) / Fold change /veh IL23R (11748794_a_at) / RFU TNFAIP8L3 (11732012_x_at) / Fold change /veh TNFAIP8L3 (11732012_x_at) / RFU MBOAT4 (11741988_at) / Fold change /veh MBOAT4 (11741988_at) / RFU 11764193_at / Fold change /veh 11764193_at / RFU TMEM53 (11763286_at) / Fold change /veh TMEM53 (11763286_at) / RFU MAGEB2 (11727129_at) / Fold change /veh MAGEB2 (11727129_at) / RFU TMEM200A (11744735_a_at) / Fold change /veh TMEM200A (11744735_a_at) / RFU CCDC152 (11751479_a_at) / Fold change /veh CCDC152 (11751479_a_at) / RFU FAM211A (11726209_a_at) / Fold change /veh FAM211A (11726209_a_at) / RFU RGS16 (11746705_a_at) / Fold change /veh RGS16 (11746705_a_at) / RFU VCAN (11755009_s_at) / Fold change /veh VCAN (11755009_s_at) / RFU RHOB (11743442_s_at) / Fold change /veh RHOB (11743442_s_at) / RFU RGS16 (11720943_a_at) / Fold change /veh RGS16 (11720943_a_at) / RFU RGS16 (11720944_at) / Fold change /veh RGS16 (11720944_at) / RFU, VPS4B / Fold change vs veh, VPS4B / RFU, CREB1 / Fold change vs veh, CREB1 / RFU, DNAJC13 / Fold change vs veh, DNAJC13 / RFU, GNAQ / Fold change vs veh, GNAQ / RFU, CDK5R1 / Fold change vs veh, CDK5R1 / RFU, ZRANB3 / Fold change vs veh, ZRANB3 / RFU, CUL4A / Fold change vs veh, CUL4A / RFU, CCNY / Fold change vs veh, CCNY / RFU, UFL1 / Fold change vs veh, UFL1 / RFU, COG3 / Fold change vs veh, COG3 / RFU, DIAPH2 / Fold change vs veh, DIAPH2 / RFU, SKA2 / Fold change vs veh, SKA2 / RFU, AFF3 / Fold change vs veh, AFF3 / RFU, LMF1 / Fold change vs veh, LMF1 / RFU, IPO11 / Fold change vs veh, IPO11 / RFU, DFFB / Fold change vs veh, DFFB / RFU, FOXP1 / Fold change vs veh, FOXP1 / RFU, CARD8 / Fold change vs veh, CARD8 / RFU, STRN3 / Fold change vs veh, STRN3 / RFU, ADK / Fold change vs veh, ADK / RFU, RASSF2 / Fold change vs veh, RASSF2 / RFU, WIPF1 / Fold change vs veh, WIPF1 / RFU, LARP1B / Fold change vs veh, LARP1B / RFU, RASA1 / Fold change vs veh, RASA1 / RFU, RB1 / Fold change vs veh, RB1 / RFU, PPFIA1 / Fold change vs veh, PPFIA1 / RFU, MAT2A / Fold change vs veh, MAT2A / RFU, CCT5 / Fold change vs veh, CCT5 / RFU, WDR92 / Fold change vs veh, WDR92 / RFU, CUX1 / Fold change vs veh, CUX1 / RFU, TTC7A / Fold change vs veh, TTC7A / RFU, TMEM135 / Fold change vs veh, TMEM135 / RFU, DEPTOR / Fold change vs veh, DEPTOR / RFU, CPM / Fold change vs veh, CPM / RFU, DNAJB6 / Fold change vs veh, DNAJB6 / RFU, CACNA2D3 / Fold change vs veh, CACNA2D3 / RFU, DTX4 / Fold change vs veh, DTX4 / RFU, TFCP2 / Fold change vs veh, TFCP2 / RFU, GMCL1 /// GMCL1P1 / Fold change vs veh, GMCL1 /// GMCL1P1 / RFU, AEBP2 / Fold change vs veh, AEBP2 / RFU, SNHG1 /// SNORD22 /// SNORD25 /// SNORD26 /// SNORD27 /// SNORD28 /// SNORD29 /// SNORD31 / Fold change vs veh, SNHG1 /// SNORD22 /// SNORD25 /// SNORD26 /// SNORD27 /// SNORD28 /// SNORD29 /// SNORD31 / Fold change (Aza/veh), C12orf56 (ProbeSet 11735607_a_at) / Fold change (ACY-1035/veh), C12orf56 (ProbeSet 11735607_a_at) / Fold change (Aza/veh), FGFR1OP (ProbeSet 11751329_s_at) / Fold change (ACY-1035/veh), FGFR1OP (ProbeSet 11751329_s_at) / Fold change (Aza/veh), VPS36 (ProbeSet 11739960_a_at) / Fold change (ACY-1035/veh), VPS36 (ProbeSet 11739960_a_at) / RFU SYPL1 (11715823_x_at) / Fold change /veh SYPL1 (11715823_x_at) / RFU IGFBP7 (11715501_s_at) / Fold change /veh IGFBP7 (11715501_s_at) / RFU REEP3 (11722064_at) / Fold change /veh REEP3 (11722064_at) / RFU IGLL1 (11728026_x_at) / Fold change /veh IGLL1 (11728026_x_at): dose or concentration left out as unconfirmed
Settings: ProbeSet 11723944_a_at; LIST B

Nc1ccc(-c2cccs2)cc1NC(=O)c1ccc2c(c1)cc(C1CC1)n2CCN1CCOCC1 [ACY-1035]
Fold change vs veh, PTTG1IP: 0.91
